From paper PMC6400584, “Activation mechanism of ATP-sensitive K^+ channels explored with real-time nucleotide binding” (eLife, 2019)
Where two headings read alike, the source gives them in different places.

Columns and labels:
[1] = biological target: T1, SUR1/Kir6.2 (Homo sapiens, UniProt Q09428+Q14654); set-up: method as in Proks et al., 2010; settings: 100 μM in Mg2+-free solutions; wild-type; ref Proks et al., 2010; cited from earlier work
T1 construct: expressed in transfected cells; host or cells: HEK-293T

[2] = test system: SUR1-T1397*/Kir6.2; experiment: Current inhibition in inside-out patches in the absence of Mg2+; type: biochemical, Homo sapiens
Protocol: (§1) Currents were recorded from inside-out membrane patches excised from transfected HEK-293T cells. Pipettes were pulled to a resistance of 1–5 MΩ and filled with an extracellular solution containing (in mM) 140 KCl, 1.2 MgCl2, 2.6 CaCl2, and 10 HEPES, pH 7.4 or 140 KCl, 1 EGTA, 10 HEPES, pH 7.3. The intracellular (bath) solutions contained either (in mM) 107 KCl, 2 MgCl2, 1 CaCl2, 10 EGTA, and 10 HEPES, pH 7.2 for experiments showing nucleotide-dependent activation or 140 KCl, 1 EDTA, 1 EGTA, 10 HEPES pH 7.3 for experiments showing nucleotide-dependent inhibition. Nucleotides were added as indicated. Patches were perfused with an 8-channel µFlow perfusion system. Data were acquired at a holding potential of −60 mV using an Axopatch 200B amplifier and Digidata 1322A digitizer with pClamp 9.0 software (Molecular Devices). Currents were digitized at 10 kHz and low-pass filtered at 1 kHz. KATP channels run down in excised patches (reviewed by Proks et al.) ([Proks et al., 2016]). For inhibitory concentration-response relationships, rundown was corrected by alternating test nucleotide solutions with nucleotide-free (control) solutions and expressing the test currents as a fraction of the average of the control currents before and after the test solution. […]

[3] = test system: SUR1-Y1353*/Kir6.2; experiment: Nucleotide wash-out (dissociation) time course; type: binding, Homo sapiens; settings: for t0.5 (time to 50% dissociation): no drug, mean ± SD of individual fits; for reduction of off-rate in the presence of Mg2+ (fold / factor): with vs without Mg2+; for τ of MgTNP-ADP dissociation in the presence of drug / τ of MgTNP-ATP dissociation in the presence of drug: 500 µM tolbutamide or 340 µM diazoxide
[4] = biological target: T2, SUR1-T1397*/Kir6.2 (Homo sapiens, UniProt Q09428, T1397X); experiment: FRET binding of TNP-nucleotides to ANAP-labeled KATP in unroofed membrane fragments; settings: absence of Mg2+
T2 construct: confirmed that >95% of SUR1-T1397* was full length; expressed in transfected cells; host or cells: HEK-293T
Protocol: (§2) Unroofed membranes were prepared using a modification of a protocol from the Heuser laboratory ([Heuser, 2000]; [Usukura et al., 2012]; [Zagotta et al., 2016]). Briefly, a coverslip containing adherent cells was removed from the cell culture medium and a small piece (0.5–1 cm) was broken off using jewelers forceps (#5) and washed in phosphate buffered saline (PBS, Thermo Fisher Scientific) diluted 1:3 in deionized water. Cells were exposed 3 × 10 s to a solution of 0.01% poly-L-lysine (Sigma) with intervening washes in diluted PBS to adhere them more firmly to the coverslips. The coverslip fragment was then placed in a 30 mm culture dish filled with 2–3 mL of 1/3X PBS and sonicated very briefly (~100 ms) using a probe sonicator (Vibra-cell; Newtown, CT), leaving behind adherent plasma membrane and sometimes additional cellular material. The unroofed fragments in our experiments were sometimes visible under bright-field illumination, a potential result of our modified ‘unroofing’ procedure. Morphologically, such cell fragments resemble the ‘partially unroofed’ cells identified by Usukura et al. ([Usukura et al., 2012]) Cells cultured on poly-D-lysine coated FluoroDishes were unroofed in diluted PBS with no additional poly-L-lysine treatment. This procedure yielded a higher percentage of completely unroofed plasma membranes (i.e. nearly invisible with brightfield illumination).
(§3) Unroofed membrane fragments were imaged directly on FluoroDishes (FD35-PDL-100, World Precision Instruments) or on broken coverslips placed in a FluoroDish (FD3510, World Precision instruments) using a Nikon TE2000-U microscope equipped with a 40x (S Fluor, 1.3 NA; Nikon, Kingston Upon Thames, UK) or 100x (Apo TIRF, 1.49 NA, Nikon) oil-immersion objective and low-fluorescence immersion oil (MOIL-30, Olympus; Southend-on-Sea, UK) or a 60x water immersion objective (Plan Apo VC, 1.20 NA, Nikon). ANAP was excited using a ThorLabs LED source (LED4D067) at 385 nm connected to the microscope using a liquid light guide in series with a 390/18 nm band-pass filter (MF390-18, ThorLabs; Newton, NJ) and MD416 dichroic (ThorLabs). For imaging, emitted light was filtered through a 479/40 nm band-pass filter (MF479-40, ThorLabs). GFP-tagged constructs were imaged using a similar setup with excitation at 490 nm, a 480/40 band-pass excitation filter (Chroma; Bellows Falls, VT), a DM505 dichroic mirror (Chroma), and 510 nm long-pass emission filter (Chroma). All images were acquired using a PIXIS 400B CCD camera (Princeton Instruments; Trenton, NJ). For spectroscopy, ANAP was excited as above, but emitted light was passed through a 400 nm long-pass filter (FEL0400, ThorLabs) and directed through the slit of an Isoplane 160 spectrometer (300 g/mm grating; Princeton Instruments) in series with the camera. The acquired images retained spatial information in the y-dimension, with the x-dimension replaced by wavelength (Figure 1—figure supplement 1a). Exposure times were typically 100 ms for brightfield images, 1–10 s for steady-state spectra and 1–5 s for time-course experiments.
(§4) To prevent accumulation of fluorescent nucleotides in the bath, FluoroDishes were perfused with either (in mM) 140 KCl, 20 NaCl, 10 MgCl2, 10 HEPES pH 7.2 with NaOH or 140 KCl, 20 NaCl, 1 EDTA, 10 HEPES pH 7.2 with NaOH using a peristaltic pump (Ismatec; Wertheim, Germany). Unroofed membranes were directly perfused with nucleotides using an 8-channel µFlow perfusion system (ALA Scientific Instruments; Farmingdale, NY). Solution change with the µFlow was rapid (τ = 0.73 s±0.02 s, n=5) as measured from single exponential fits to wash-out of 50 µM tetramethylrhodamine-5-maleimide (TMRM) after switching to a solution with no TMRM. TMRM was excited with a 565 nm LED with a D540/25X band-pass filter (Chroma) and DM565 dichroic mirror (Chroma). Emitted light was collected through a D605/55M band-pass filter (Chroma). […]

[5] = biological target: SUR1-Y1353*/Kir6.2 (NBS2 of SUR1) (Homo sapiens, UniProt Q09428, Y1353X); experiment: as above
Protocol: as §2, §3, §4

[6] = biological target: T3, SUR1-Y1353*,K2A/Kir6.2 (Homo sapiens, UniProt Q09428, K1384A/Y1353X); experiment: as above; settings: absence of Mg2+
T3 construct: the signals we measured (fluorescence) were derived solely from full-length (i.e. ANAP-labeled) channels; expressed in transfected cells; host or cells: HEK-293T
Protocol: as §2, §3, §4

[7] = biological target: T4, SUR1/Kir6.2-G334D (Homo sapiens, UniProt Q09428); experiment: Current activation in inside-out patches; type: biochemical
T4 construct: expressed in transfected cells; host or cells: HEK-293T
Protocol: as §1

[8] = biological target: T3, SUR1-Y1353*,K2A/Kir6.2; experiment: Nucleotide wash-out (dissociation) time course; type: binding; settings: absence of Mg2+
Source text: as §4, with “[…] Solution exchange” for “Emitted light”, “also monitored during experiments with TNP-nucleotides by examining the emission spectrum of” for “collected through”, “background region in each image.” for “D605/55M band-pass filter (Chroma).”
To measure the time course of nucleotide unbinding, the fluorescence at the TNP-nucleotide peak (usually around 560 nm) was plotted as a function of time after exchanging to a zero-nucleotide solution, as following the time course of the rise in ANAP fluorescence was complicated by photobleaching. After complete wash out of nucleotides, the fluorescence at 560 nm was non-zero, as the shoulder of the ANAP emission spectrum extends into the range of wavelengths at which TNP-nucleotides emit. […]

[9] = absence of Mg2+, fit to combined data
[10] = mean ± SEM of fits to individual experiments
[11] = absence of Mg2+ (1 mM EDTA), mean ± SEM of fits to individual experiments

Row | Compound | t0.5 (time to 50% dissociation) ([3]; absence of Mg2+) [s] | reduction of off-rate in the presence of Mg2+ (fold / factor) [3] | EC50 ([4]; fit to combined data) [µM] | Emax ([4]; fit to combined data) | h ([4]; fit to combined data) | EC50 [4, 10] [µM] | Emax [4, 10] | h [4, 10] | Emax [5, 11] | h [5, 11] | Emax [5, 9] | h [5, 9] | Emax ([6]; fit to combined data) | h ([6]; fit to combined data) | Emax [6, 10] | h [6, 10] | τ of MgTNP-ADP dissociation in the presence of drug ([3]; fit to combined data) [s] | τ of MgTNP-ATP dissociation in the presence of drug ([3]; fit to combined data) [s] | further results
1 | Nc1ncnc2c1ncn2[C@@H]1O[C@H](COP(=O)(O)OP(=O)(O)O)[C@@H](O)[C@H]1O [ADP] | – | – | – | – | – | – | – | – | – | – | – | – | – | – | – | – | – | – | reduction in current [1]: ~ 60%
2 | Nc1ncnc2c1ncn2[C@@H]1O[C@H](COP(=O)(O)OP(=O)(O)OP(=O)(O)O)[C@@H](O)[C@H]1O [ATP] | – | – | – | – | – | – | – | – | – | – | – | – | – | – | – | – | – | – | IC50 ([2]; Equation 4 fit to combined data): 49.2 µM; IC50 ([2]; mean ± SEM of fits of Equation 4 to individual experiments): 53.9 ± 9.4 µM
3 | Nc1ncnc2c1ncn2[C@@H]1O[C@H](COP(=O)(O)OP(=O)(O)OP(=O)(O)O)[C@H]2OC3(O[C@H]21)C([N+](=O)[O-])=CC(=[N+]([O-])[O-])C=C3[N+](=O)[O-] (stereo partly drawn) [TNP-ATP, trinitrophenyl-ATP] | 4.8 ± 1.5 | 2.2 | 4.8 | 0.94 ± 0.02 | 0.8 ± 0.1 | 4.7 ± 0.8 | 0.94 ± 0.01 | 0.83 ± 0.09 | 0.83 ± 0.03 | 0.88 ± 0.06 | 0.84 ± 0.04 | 0.8 ± 0.1 | 0.87 ± 0.03 | 0.9 ± 0.2 | 0.90 ± 0.03 | 0.98 ± 0.13 | – | – | A1 of dissociation (bi-exponential amplitude) [3, 9]: 0.65 ± 0.06; A2 of dissociation (bi-exponential amplitude) [3, 9]: 0.35 ± 0.06; τ1 of dissociation (bi-exponential) [3, 9]: 4.5 s; τ2 of dissociation (bi-exponential) [3, 9]: 28.2 s; EC50 ([5]; EC50, absence of Mg2+ (1 mM EDTA), mean ± SEM of fits to individual experiments): 12.8 ± 5.6 µM; EC50 ([5]; EC50, absence of Mg2+, fit to combined data): 8.5 µM
4 | CC1=NS(=O)(=O)c2cc(Cl)ccc2N1 [diazoxide] | – | – | – | – | – | – | – | – | – | – | – | – | – | – | – | – | 52.6 | 60.5 | –
5 | CCCCNC(=O)NS(=O)(=O)c1ccc(C)cc1 [tolbutamide] | – | – | – | – | – | – | – | – | – | – | – | – | – | – | – | – | 6.4 | 6.3 | effect on currents [7]: inhibited
6 | trinitrophenyl-ADP [TNP-ADP] | 2.9 ± 0.5 | ~ 5 | 5.6 | 0.98 ± 0.05 | 0.7 ± 0.1 | 6.3 ± 2.3 | 0.98 ± 0.02 | 0.84 ± 0.13 | 0.95 ± 0.01 | 0.79 ± 0.04 | 0.95 ± 0.02 | 0.8 ± 0.1 | 0.91 ± 0.02 | 0.9 ± 0.1 | 0.92 ± 0.02 | 0.88 ± 0.05 | – | – | τ of dissociation (single exponential) [3, 9]: 4.2 s; τ of dissociation (single exponential) ([8]; fit to combined data): 5.4 s; t0.5 (time to 50% dissociation) ([8]; mean ± SD): 3.8 ± 1.0 s; EC50 ([5]; absence of Mg2+ (1 mM EDTA), mean ± SEM of fits to individual experiments, read-out: EC50): 6.8 ± 1.3 µM; EC50 ([5]; absence of Mg2+, fit to combined data, read-out: EC50): 6.1 µM; effect of increasing concentration to 10 mM on amount of quenching ([5]; absence of Mg2+, n = 3, data not shown): did not significantly change; EC50 ([6]; fit to combined data): 4.4 µM; EC50 [6, 10]: 5 ± 1 µM
